Source: patent publication US8940727B2, “Benzazepine compound” (Otsuka Pharmaceutical Co., Ltd., priority 2009, dated 2015)

Experiment: Metabolic stability assay in human liver microsomes
Assay type: in vitro ADME
Conditions: for microsomal CLint at 1 μM: human liver microsomes 0.2 mg/mL, test compound 1 μM, NADPH/NADH, n = 4, read-out: hepatic intrinsic clearance (Clint)
Procedure: The following reaction system was prepared with reference to the method disclosed by Obach, and that disclosed by Jones et al. (References 1 and 2), and the metabolic stability thereof was evaluated. Note that the human liver microsomes used were purchased from BD Gentest. The test compound was dissolved in DMSO to have a concentration of 10 mM and diluted with acetonitrile in such a manner that its concentration became 100 μM.
A reaction system without a coenzyme was preincubated at 37° C. for 5 minutes, and a coenzyme was then added to start the reaction. After the addition of the coenzyme, the incubation was performed at selected time intervals, i.e., 0, 5, 10, 20, 30 and 60 minutes to extract a portion of the reaction mixture. The extracted reaction mixture was added to an acetonitrile solution containing an internal standard substance and the reaction was then terminated.
After the reaction was terminated, the resulting mixture was centrifuged, the supernatant was poured into a liquid chromatograph tandem mass spectrometer (LC-MS/MS) to determine the level of unchanged substance remaining in the reaction system. Ionization was performed by electro-spray ionization (ESI) in a positive ion detection mode. Here, selected reaction monitoring (MRM) using preset precursor ions and product ions was employed.
The remaining ratio of the test compound was calculated by the following equation. Remaining ratio=(peak area of the test compound at the reaction time of t minutes/peak area of the internal standard substance)÷(peak area of the test compound at the reaction time of 0 minutes/peak area of the internal standard substance)
A nonlinear least-squares analysis was performed in terms of the remaining ratio and incubation time to obtain the elimination rate constant (0.693/t1/2), and, further, the hepatic intrinsic clearance (Clint) was obtained using the following Formula (1). Clint (μL/min/mg)=(0.693/t1/2)÷0.2 (mg/mL)×1000 (1) […]

microsomal CLint at 1 μM [µL/min/mg]	Compound	metabolic stability compared to tolvaptan (human liver microsomes, two-tailed Dunnett's test, p<0.001)
166 ± 5.3	[2H]C1([2H])CC([2H])([2H])C([2H])(O)c2cc(Cl)ccc2N1C(=O)c1ccc(NC(=O)c2ccccc2C)cc1C (stereo not drawn) [Example 4, N-(4-(7-chloro-5-hydroxy-2,2,4,4,5-pentadeutero-1H-benzo[b]azepine-1-carbonyl)-3-methylphenyl)-2-methylbenzamide]	significantly improved metabolic stability compared to tolvaptan
214 ± 4.3	Cc1ccccc1C(=O)Nc1ccc(C(=O)N2CCCC(O)c3cc(Cl)ccc32)c(C)c1 (stereo not drawn) [Tolvaptan, tolvaptan, reference compound]	–
